Columns and labels:
Sphaerotheca fuliginea = assay: In vivo preventive test on Sphaerotheca fuliginea (powdery mildew on cucurbits); conditions: Podosphaera fuliginea, 192 h; 500 ppm of active ingredient; preventive spray on gherkin; evaluated 8 days after inoculation; read-out: efficacy
Method: Example: In Vivo Preventive Test on Sphaerotheca fuliginea (Powdery Mildew on Cucurbits)
(§1) • Solvent: 5% by volume of Dimethyl sulfoxide • 10% by volume of Acetone • Emulsifier: 1 μl of Tween® 80 per mg of active ingredient
(§2) The active ingredients were made soluble and homogenized in a mixture of Dimethyl sulfoxide/Acetone//Tween®80 and then diluted in water to the desired concentration.
The young plants of gherkin were treated by spraying the active ingredient prepared as described above. Control plants were treated only with an aqueous solution of Acetone/Dimethyl sulfoxide/Tween® 80.
After 24 hours, the plants were contaminated by spraying the leaves with an aqueous suspension of Sphaerotheca fuliginea spores. The contaminated gherkin plants were incubated for 8 days at 20° C. and at 70-80% relative humidity.
The test was evaluated 8 days after the inoculation. 0% means an efficacy which corresponds to that of the control plants while an efficacy of 100% means that no disease was observed.

[1] = system: Colletotrichum lindemuthianum; assay: Colletotrichum lindemuthianum in vitro cell test; format: cell-based; conditions: 144 h, 20 ppm of active ingredient, liquid culture, 6 days incubation, read-out: efficacy (inhibition of fungal growth)
Method: (§3) Example: Colletotrichum lindemuthianum In Vitro Cell Test • Solvent: DMSO • Culture medium: 14.6 g anhydrous D-glucose (VWR), 7.1 g Mycological Peptone (Oxoid), 1.4 g granulated Yeast Extract (Merck), QSP 1 liter • Inoculum: spores suspension Fungicides were solubilized in DMSO and the solution used to prepare the required range of concentrations. The final concentration of DMSO used in the assay was ≤1%. A spore suspension of C. lindemuthianum was prepared and diluted to the desired spore density. Fungicides were evaluated for their ability to inhibit spores germination and mycelium growth in liquid culture assay. The compounds were added in the desired concentration to the culture medium with spores. After 6 days incubation, fungi-toxicity of compounds was determined by spectrometric measurement of mycelium growth. Inhibition of fungal growth was determined by comparing the absorbance values in wells containing the fungicides with the absorbance in control wells without fungicides.

Alternaria brassicae = assay: In vivo preventive test on Alternaria brassicae (leaf spot on radish or cabbage); conditions: 144 h, 500 ppm of active ingredient, preventive spray on radish or cabbage, evaluated 6 days after inoculation, read-out: efficacy
Method: Example: In Vivo Preventive Test on Alternaria brassicae (Leaf Spot on Radish or Cabbage)
as §1, §2
The young plants of radish or cabbage were treated by spraying the active ingredient prepared as described above. Control plants were treated only with an aqueous solution of Acetone/Dimethyl sulfoxide/Tween® 80.
After 24 hours, the plants were contaminated by spraying the leaves with an aqueous suspension of Alternaria brassicae spores. The contaminated radish or cabbage plants were incubated for 6 days at 20° C. and at 100% relative humidity.
The test was evaluated 6 days after the inoculation. 0% means an efficacy which corresponds to that of the control plants while an efficacy of 100% means that no disease was observed.

Botrytis cinerea = assay: In vivo preventive test on Botrytis cinerea (grey mould); conditions: 500 ppm of active ingredient, preventive spray on gherkin or cabbage, evaluated 4 to 5 days after inoculation, read-out: efficacy
Method: Example: In Vivo Preventive Test on Botrytis cinerea (Grey Mould)
as §1, §2
The young plants of gherkin or cabbage were treated by spraying the active ingredient prepared as described above. Control plants were treated only with an aqueous solution of Acetone/Dimethyl sulfoxide/Tween® 80.
After 24 hours, the plants were contaminated by spraying the leaves with an aqueous suspension of Botrytis cinerea spores. The contaminated gherkin plants were incubated for 4 to 5 days at 17° C. and at 90% relative humidity. The contaminated cabbage plants were incubated for 4 to 5 days at 20° C. and at 100% relative humidity.
The test was evaluated 4 to 5 days after the inoculation. 0% means an efficacy which corresponds to that of the control plants while an efficacy of 100% means that no disease was observed.

[2] = Measurement of LogP values by HPLC on reversed phase columns (EEC directive 79/831 Annex V.A8), methods [a], [b], [c]; format: physicochemical; conditions: HPLC on reversed phase column, method [a]; read-out: Log P
Method: Measurement of Log P values as provided herein was performed according to EEC directive 79/831 Annex V.A8 by HPLC (High Performance Liquid Chromatography) on reversed phase columns with the following methods: • ^[a]
If more than one Log P value is available within the same method, all the values are given and separated by “+”.
Lambda-max-values were determined using UV-spectra from 200 nm to 400 nm and the peak values of the chromatographic signals

Alternaria alternata = Alternaria alternata in vitro cell test; format: cell-based; conditions: 120 h, 20 ppm of active ingredient, liquid culture, 5 days incubation, read-out: efficacy (inhibition of fungal growth)
Method: as §3, with “Example: Alternaria alternata” for “Example: Colletotrichum lindemuthianum”, “of A. alternata” for “of C. lindemuthianum”, “inhibit spore” for “inhibit spores”, “After 5” for “After 6”

[3] = system: Colletotrichum lindemuthianum; assay: In vivo preventive test on Colletotrichum lindemuthianum (leaf spot on bean); conditions: 168 h, 500 ppm of active ingredient, preventive spray on bean, evaluated 7 days after inoculation, read-out: efficacy
Method: Example: In Vivo Preventive Test on Colletotrichum lindemuthianum (Leaf Spot on Bean)
as §1, §2
The young plants of bean were treated by spraying the active ingredient prepared as described above. Control plants were treated only with an aqueous solution of Acetone/Dimethyl sulfoxide/Tween® 80.
After 24 hours, the plants were contaminated by spraying the leaves with an aqueous suspension of Colletotrichum lindemuthianum spores. The contaminated bean plants were incubated for 24 hours at 20° C. and at 100% relative humidity and then for 6 days at 20° C. and at 90% relative humidity.
The test was evaluated 7 days after the inoculation. 0% means an efficacy which corresponds to that of the control plants while an efficacy of 100% means that no disease was observed.

Pyrenophora teres = assay: In vivo preventive test on Pyrenophora teres (net blotch on barley); conditions: 240 h, 500 ppm of active ingredient, preventive spray on barley, evaluated 10 days after inoculation, read-out: efficacy
Method: Example: In Vivo Preventive Test on Pyrenophora teres (Net Blotch on Barley)
as §1, §2
The young plants of barley were treated by spraying the active ingredient prepared as described above. Control plants were treated only with an aqueous solution of Acetone/Dimethyl sulfoxide/Tween®80.
After 24 hours, the plants were contaminated by spraying the leaves with an aqueous suspension of Pyrenophora teres spores. The contaminated barley plants were incubated for 48 hours at 20° C. and at 100% relative humidity and then for 8 days at 20° C. and at 70-80% relative humidity.
The test was evaluated 10 days after the inoculation. 0% means an efficacy which corresponds to that of the control plants while an efficacy of 100% means that no disease was observed.

| Compound | pest or weed control at 500 ppm (Sphaerotheca fuliginea) | inhibition at 20 ppm [1] | pest or weed control at 500 ppm (Alternaria brassicae) | pest or weed control at 500 ppm (Botrytis cinerea) | chromatographic logP [2] | inhibition at 20 ppm (Alternaria alternata) | pest or weed control at 500 ppm [3] | pest or weed control at 500 ppm (Pyrenophora teres) |
| --- | --- | --- | --- | --- | --- | --- | --- | --- |
| COCCSc1nnc(Oc2cccc(C(F)(F)F)c2)c(C2=NOCC(Cc3ccc(C)cc3C)N2)c1C (racemic) [I-187, rac-5-[(2,4-dimethylphenyl)methyl]-3-[6-(2-methoxyethylsulfanyl)-5-methyl-3-[3-(trifluoromethyl)phenoxy]pyridazin-4-yl]-5,6-dihydro-4H-1,2,4-oxadiazine] | 90 to 100% | 90 to 100% | 90 to 100% | 90 to 100% | 4.51 | 90 to 100% | – | – |
| Cc1ccc(CC2CC(=O)N=C(c3cc(Cl)nnc3Oc3cccc(C4CC4)c3)N2)c(C)c1 (racemic) [I-078, rac-2-[6-chloro-3-(3-cyclopropylphenoxy)pyridazin-4-yl]-6-[(2,4-dimethylphenyl)methyl]-5,6-dihydro-1H-pyrimidin-4-one] | 80 to 89% | 90 to 100% | 90 to 100% | 90 to 100% | 4.31 | 90 to 100% | 90 to 100% | 80 to 89% |
| Cc1ccc(CC2CON=C(c3c(Oc4cccc(C(F)(F)F)c4)nnc(Cl)c3I)N2)c(C)c1 (racemic) [I-065, rac-3-[6-chloro-5-iodo-3-[3-(trifluoromethyl)phenoxy]pyridazin-4-yl]-5-[(2,4-dimethylphenyl)methyl]-5,6-dihydro-4H-1,2,4-oxadiazine] | – | 90 to 100% | 90 to 100% | – | 4.37 | 90 to 100% | 90 to 100% | 70 to 79% |
| Cc1ccc(CC2CON=C(c3c(Oc4cccc(C5CC5)c4F)nnc(Cl)c3C)N2)c(C)c1 (racemic) [I-058, rac-3-[6-chloro-3-(3-cyclopropyl-2-fluoro-phenoxy)-5-methyl-pyridazin-4-yl]-5-[(2,4-dimethylphenyl)methyl]-5,6-dihydro-4H-1,2,4-oxadiazine] | 90 to 100% | 90 to 100% | 90 to 100% | 90 to 100% | 4.3 | 90 to 100% | 90 to 100% | 80 to 89% |
| Cc1ccc(OCC2CON=C(c3cc(C)nnc3Oc3cccc(C(F)(F)F)c3)N2)c(C)c1 (racemic) [I-144, rac-5-[(2,4-dimethylphenoxy)methyl]-3-[6-methyl-3-[3-(trifluoromethyl)phenoxy]pyridazin-4-yl]-5,6-dihydro-4H-1,2,4-oxadiazine] | 70 to 79% | 90 to 100% | 90 to 100% | 90 to 100% | 3.98 | 90 to 100% | – | – |
| Cc1ccc(CC2CON=C(c3c(Oc4cccc(C(F)(F)F)c4)nnc(Cl)c3NC3CC3)N2)c(C)c1 (racemic) [I-041, 3-chloro-N-cyclopropyl-5-[rac-5-[(2,4-dimethylphenyl)methyl]-5,6-dihydro-4H-1,2,4-oxadiazin-3-yl]-6-[3-(trifluoromethyl)phenoxy]pyridazin-4-amine] | 90 to 100% | 90 to 100% | 90 to 100% | 90 to 100% | 4.03 | 90 to 100% | – | – |
| Cc1ccc(CC2CCN=C(c3cc(Cl)nnc3Oc3cccc(C(F)(F)F)c3)N2)c(C)c1 (racemic) [I-117, 6-chloro-4-[rac-6-[(2,4-dimethylphenyl)methyl]-1,4,5,6-tetrahydropyrimidin-2-yl]-3-[3-(trifluoromethyl)phenoxy]pyridazine] | – | 90 to 100% | 90 to 100% | 90 to 100% | 2.56 | 90 to 100% | 90 to 100% | – |
| Cc1ccc(CC2CNN=C(c3cc(Cl)nnc3Oc3cccc(C(F)(F)F)c3)N2)c(C)c1 (racemic) [I-173, rac-3-[6-chloro-3-[3-(trifluoromethyl)phenoxy]pyridazin-4-yl]-5-[(2,4-dimethylphenyl)methyl]-1,4,5,6-tetrahydro-1,2,4-triazine] | 90 to 100% | 90 to 100% | 90 to 100% | 90 to 100% | 3.31 | 90 to 100% | 90 to 100% | 90 to 100% |
| Cc1cc(C2=NOCCC(c3ccc4c(ccn4C)c3)N2)c(Oc2cccc(C(F)(F)F)c2)nn1 (racemic) [I-062, rac-5-(1-methylindol-5-yl)-3-[6-methyl-3-[3-(trifluoro-methyl)phenoxy]pyridazin-4-yl]-4,5,6,7-tetrahydro-1,2,4-oxadiazepine] | 90 to 100% | – | 90 to 100% | 90 to 100% | 1.92 | – | 90 to 100% | – |
| Cc1cc(C2=NOCC(c3ccc(Cl)cc3)N2)c(Oc2cccc(C(F)(F)F)c2)nn1 (racemic) [I-040, rac-5-(4-chlorophenyl)-3-[6-methyl-3-[3-(trifluoro-methyl)phenoxy]pyridazin-4-yl]-5,6-dihydro-4H-1,2,4-oxadiazine] | 80 to 89% | 90 to 100% | 90 to 100% | 90 to 100% | 3.29 | 90 to 100% | 90 to 100% | 80 to 89% |

Source: patent publication US12501900B2, “Heterocyclyl pyridazine as fungicidal compounds” (Bayer Aktiengesellschaft, priority 2018, dated 2025)
